Patent publication US11401271B2, “Fused heterocyclic compound, pyrazole-ring-containing fused heterocyclic compound, agricultural composition containing thereof, and method of using the composition” (SOUTH CHINA AGRICULTURAL UNIVERSITY, priority 2017, dated 2022)
Read-outs that look alike come from different tables or passages of the source.

What was measured:
Experiment in all cases: whole plant or invertebrate
Format in all cases: in vivo
Aphis craccivora = settings: for Aphis craccivora Mortality (%): immersion 5 seconds, counted after 24 hours; for mortality at 500 ppm: Aphis craccivora, read-out: Aphis craccivora Mortality (%) 500 ppm
Procedure: (3) Insecticidal Activity on Aphid Adults.
Aphid is a homoptera pest with a piercing-sucking mouthpart and is a common vegetable pest. Aphis craccivora were taken as test objects and tested by using an impregnation method.
Operation process: Samples were weighed accurately, and respectively added with 200 μL of dimethyl sulfoxide to prepare 10 g/L mother liquor which was diluted into a concentration of 500 ppm with an aqueous solution containing 0.05% of Tween-80 during the test. After the wingless Aphis craccivora adults stably sucked on bean sprouts, the wingless Aphis craccivora adults together with the bean sprouts were immersed into a liquid medicine with a concentration of 500 ppm, taken out after 5 seconds, air-dried naturally, transferred into a clean vessel, and fed at a constant temperature of 23° C. Each concentration was repeated 3 times, and an aqueous solution containing 0.05% of Tween-80 was used as a control group. After being treated for 24 hours, a number of dead Aphis craccivora was counted, and a mortality (%) was calculated according to a formula that mortality (%)=(number of live Aphis craccivora in the control group−number of treated live Aphis craccivora)/number of live Aphis craccivora in the control group*100%.

Spodoptera exigua = settings: for mortality at 500 ppm: Spodoptera exigua, read-out: Spodoptera exigua Mortality (%) 500 ppm
Procedure: (2) Insecticidal Activity on 2nd-Instar Larvae of Spodoptera exigua.
Spodoptera exigua is a lepidoptera pest with a chewing mouthpart and is a common vegetable pest. The 2nd-instar larvae of Spodoptera exigua were used as test objects and tested by using a leaf immersion feeding method.
(§1) Operation process: Samples were weighed accurately, and respectively added with 200 μL, of dimethyl sulfoxide to prepare 10 g/L mother liquor which was diluted into a concentration of 500 ppm with an aqueous solution containing 0.05% of Tween-80 during the test. A hole puncher with a diameter of 1.0 cm was used to make cleaned cabbage leaves into leaf discs. The leaf discs were immersed in a liquid medicine, taken out after 5 seconds, air-dried naturally, and transferred into a clean vessel. About 35 2nd -instar larvae of Spodoptera exigua were put into the vessel and fed at a constant temperature of 28° C. Each concentration was repeated 3 times, and an aqueous solution containing 0.05% of Tween-80 was used as a control group. After being treated for 24 hours, a number of dead Spodoptera exigua was counted, and a mortality (%) was calculated according to a formula that mortality (%)=(number of live larvae in the control group −number of treated live larvae)/number of live larvae in the control group * 100%.

Plutella xylostella = settings: for mortality at 500 ppm: Plutella xylostella, read-out: Plutella xylostella Mortality (%) 500 ppm
Procedure: (1) Insecticidal Activity on 2nd-Instar Larvae of Plutella xylostella.
Plutella xylostella (L.) is a lepidoptera pest with a chewing mouthpart and is a common vegetable pest. The 2nd-instar larvae of Plutella xylostella were used as test objects and tested by using a leaf immersion feeding method.
as §1, with “μL” for “μL,”, “2nd-instar” for “2nd -instar”, “Plutella xylostella” for “Spodoptera exigua”, “group−number” for “group −number”, “group*100%.” for “group * 100%.”

Solenopsis invicta = settings: for mortality at 100 ppm: Solenopsis invicta
Procedure: (4) Insecticidal Activity on Solenopsis invicta.
As a hymenoptera pests and a social insect, Solenopsis invicta is one of the most destructive invasive organisms. Solenopsis invicta were used as test objects and tested by using a water test tube poison-feeding method.
Operation process: Samples were weighed accurately, and respectively added with 200 μL of dimethyl sulfoxide to prepare 10 g/L mother liquor which was diluted into a concentration of 100 ppm with a mixed aqueous solution containing 0.05% of Tween-80 and 5% of honey during the test. […] The raising test tube was placed in a raising box horizontally, and a small amount of ham sausages were added to the raising test tube as food to raise the Solenopsis invicta at a constant temperature of 25° C. After being treated for 24 hours and 72 hours, a number of live Solenopsis invicta and a number of dead Solenopsis invicta were counted, and a mortality (%) was calculated according to a formula that mortality (%)=(number of live Solenopsis invicta in the control group−number of treated live Solenopsis invicta)/number of live Solenopsis invicta in the control group*100%.

[1] = 500 ppm, 2nd-instar larvae, leaf immersion feeding
[2] = 100 ppm, 24 h, water test tube poison-feeding
[3] = 100 ppm, 72 h, water test tube poison-feeding
[4] = 24 h, read-out: Solenopsis invicta Mortality (%) 100 ppm 24 h, 100 ppm, 24 h, water test tube poison-feeding
[5] = 72 h, read-out: Solenopsis invicta Mortality (%) 100 ppm 72 h, 100 ppm, 72 h, water test tube poison-feeding
[6] = 500 ppm, wingless adults, impregnation method, 24 hours
[7] = 500 ppm, 2nd-instar larvae, leaf immersion feeding, 24 hours
[8] = 100 ppm, 24 h, water test tube poison-feeding, read-out: Solenopsis invicta Mortality (%) 100 ppm 24 h
[9] = 100 ppm, 72 h, water test tube poison-feeding, read-out: Solenopsis invicta Mortality (%) 100 ppm 72 h

Compound	mortality at 500 ppm (Aphis craccivora; 24 h) [%]	mortality at 500 ppm (Spodoptera exigua; 24 h) [%]	mortality at 500 ppm (Plutella xylostella) [%]	mortality at 100 ppm (Solenopsis invicta; [4]) [%]	mortality at 100 ppm (Solenopsis invicta; [5]) [%]	also measured
9-chloro-2-cyano-3-cyclohexanesulfinyl-5-(2′2-dimethoxy)-7-trifluoromethyl-4,5-dihydropyrazole[1,5-α]quinazoline-5-methyl formate [d-12]						Aphis craccivora Mortality (%) (Aphis craccivora; 500 ppm, wingless adults): 100%; Spodoptera exigua Mortality (%) (Spodoptera exigua; [1]): 96%; Plutella xylostella Mortality (%) (Plutella xylostella; [1]): 86%; Solenopsis invicta Mortality (%) 24 h (Solenopsis invicta; [2]): 20%; Solenopsis invicta Mortality (%) 72 h (Solenopsis invicta; [3]): 100%
COC(=O)CC1(C(=O)OC)Nc2c([S+]([O-])C(F)(F)F)c(C#N)nn2-c2cc(C(F)(F)F)cc(Cl)c21 (racemic) [c-8]						Aphis craccivora Mortality (%) (Aphis craccivora; 500 ppm, wingless adults): 100%; Spodoptera exigua Mortality (%) (Spodoptera exigua; [1]): 100%; Plutella xylostella Mortality (%) (Plutella xylostella; [1]): 100%; Solenopsis invicta Mortality (%) 24 h (Solenopsis invicta; [2]): 20%; Solenopsis invicta Mortality (%) 72 h (Solenopsis invicta; [3]): 100%
CC1(C)Nc2c(Br)c(C#N)nn2-c2ccccc21 [Compound A2]	100	100	97	19	93	
CN1c2c(Br)c(C#N)nn2-c2ccccc2C1(C)C [Compound A3]	100	100	90	25	100	
CNC(=O)c1nn2c(c1Br)NC(C)(C)c1ccccc1-2 [Compound A6]	100	100	100	44	100	
CCSc1c(C#N)nn2c1NC(C)(C)c1ccccc1-2 [Compound A9]	100	100	100	24	100	
Nc1ccc2c(c1)-n1nc(C(F)(F)F)c(Br)c1NC2(C(F)(F)F)C(F)(F)F [Compound A11]	100	100	100	34	100	
CC[S+]([O-])c1c(C(F)(F)F)nn2c1NC(C(F)(F)F)(C(F)(F)F)c1ccc(N)cc1-2 (stereo not shown) [Compound A14]	100	90	100	26	93	
CC(C)(C)Nc1c(C#N)nn2c1NC(C)(C)c1ccccc1-2 [Compound A16]	100	100	86	20	87	
CC(=O)Nc1c(C#N)nn2c1NC(C)(C)c1ccccc1-2 [Compound A17]	100	100	100	34	100	
CC1(C)Nc2c(NC(=O)Oc3ccccc3)c(C#N)nn2-c2ccccc21 [Compound A18]						mortality at 500 ppm (Aphis craccivora; [6]): 100%; mortality at 500 ppm (Spodoptera exigua; [7]): 100%; mortality at 500 ppm (Plutella xylostella; [1]): 100%; mortality at 100 ppm (Solenopsis invicta; [8]): 44%; mortality at 100 ppm (Solenopsis invicta; [9]): 100%
Cc1ccc(S(=O)(=O)Nc2c(C#N)nn3c2NC(C)(C)c2ccccc2-3)cc1 [Compound A20]	100	90	100	26	93	
N#Cc1cnn2c1NC(N)(CN)c1ccc(Cl)cc1-2 (stereo not shown) [Compound A24]						Aphis craccivora Mortality (%) 500 ppm (Aphis craccivora; in vivo): 100%; Spodoptera exigua Mortality (%) 500 ppm (Spodoptera exigua; in vivo): 100%; Plutella xylostella Mortality (%) 500 ppm (Plutella xylostella; in vivo): 100%; Solenopsis invicta Mortality (%) 100 ppm 24 h (Solenopsis invicta; in vivo): 44%; Solenopsis invicta Mortality (%) 100 ppm 72 h (Solenopsis invicta; in vivo): 100%
CSc1nn2c(c1C#N)NC(F)(C(F)(F)F)c1ccccc1-2 (stereo not shown) [Compound A25]	100	100	100	38	100	
CSc1nn2c(c1C(N)=O)NC(F)(C(F)(F)F)c1ccccc1-2 (stereo not shown) [Compound A28]	100	90	100	29	97	
CSc1nn2c(c1C(=O)N(C)C)NC(F)(C(F)(F)F)c1ccccc1-2 (stereo not shown) [Compound A29]	100	100	100	26	95	
CSc1nn2c(c1C#N)N(C(=O)Oc1ccccc1)C(F)(C(F)(F)F)c1ccccc1-2 (stereo not shown) [Compound A31]						mortality at 500 ppm (Aphis craccivora; [6]): 100%; mortality at 500 ppm (Spodoptera exigua; [7]): 100%; mortality at 500 ppm (Plutella xylostella; [1]): 100%; mortality at 100 ppm (Solenopsis invicta; [8]): 20%; mortality at 100 ppm (Solenopsis invicta; [9]): 100%
CSc1nn2c(c1C#N)N(S(C)(=O)=O)C(F)(C(F)(F)F)c1ccccc1-2 (stereo not shown) [Compound A33]	100	100	100	24	100	
C=CCN1c2c(C#N)c(SC)nn2-c2ccccc2C1(F)C(F)(F)F (stereo not shown) [Compound A34]	100	100	96	28	97	
CSc1nn2c(c1C#N)N(CCBr)C(F)(C(F)(F)F)c1ccccc1-2 (stereo not shown) [Compound A35]	100	100	100			mortality at 100 ppm (Solenopsis invicta; 24 h, read-out: Solenopsis invicta Mortality (%) 100 ppm 24 h): 31%; mortality at 100 ppm (Solenopsis invicta; 72 h, read-out: Solenopsis invicta Mortality (%) 100 ppm 72 h): 99%
CCNc1cc2n(n1)-c1cnccc1C(F)(CC(F)(F)F)N2 (stereo not shown) [Compound A37]	100	100	100	20	100	
C=CCN(CC)c1cc2n(n1)-c1cnccc1C(F)(CC(F)(F)F)N2 (stereo not shown) [Compound A38]	100	90	100	26	93	
CC(=O)Nc1cc2n(n1)-c1cnccc1C(F)(CC(F)(F)F)N2 (stereo not shown) [Compound A39]	100	100	100	24	100	
